Results published in US20220168206A1, “ACTIVE AGENT FOR USE IN HAIR GROWTH REGULATION” (MONASTERIUM LABORATORY SKIN & HAIR RESEARCH SOLUTIONS GMBH, priority 2019, published 2022).

Key:
[1] = test system: TAS2R4 in human anagen hair follicles; assay: Activation of TAS2R4 with Rebaudioside A in cultured hair follicles; format: cell-based
Method: (§1) For analyzing the effect of activating TAS2R4 by the agonist Rebaudioside A, human anagen hair follicles from 2 donors were cultured in WEM medium supplemented with 2 mM L-glutamine, 10 ng/mL hydrocortisone, 10 μg/mL insulin and 1% penicillin/streptomycin mix (WCM medium), and treated either with 200 μM Rebaudioside A (Sigma-Aldrich, cat. 01432) diluted in DMSO or vehicle (0.5% DMSO in WCM medium) according to the following procedure:
(§2) Day 0: Isolation of anagen hair follicles
Day 1: Change WCM media, application of the substance corresponding to experimental groups (control group: 0.5% DMSO, experimental group: 200 μM Rebaudioside A)
(§3) Day 6: Collection and freezing of hair follicles for analyses

[2] = test system: TAS2R4 in anagen hair follicles; assay: Inactivation of TAS2R4 with BCML in cultured hair follicles; format: cell-based, human
Method: For analyzing the effect of inactivating TAS2R4, by the inverse agonist Nα,Nα-bis(carboxymethyl)-l-lysine (BCML), hair follicles were cultured in WEM medium supplemented with 2 mM L-glutamine, 10 ng/mL hydrocortisone, 10 μg/mL insulin and 1% penicillin/streptomycin mix (WCM medium), and treated either with 120 μM BCML (Sigma-Aldrich, cat. 14580) diluted in WCM or vehicle (WCM medium) according to the following procedure:
as §2
Day 1: Change media, application of the substance corresponding to experimental groups (control group: WCM, experimental group: 120 μM BCML)
Day 7: Collection and freezing of hair follicles for analyses

[3] = test system: TAS2R4 in anagen hair follicles; assay: Activation of TAS2R4 with Rubusoside in cultured hair follicles; format: cell-based, human
Method: as §1, with “Rubusoside,” for “Rebaudioside A, human anagen”, “follicles” for “follicles from 2 donors”, “50” for “200”, “Rubusoside” for “Rebaudioside A”, “62933)” for “01432)”, “(0.05%” for “(0.5%”
as §2
Day 1: Change media, application of the substance corresponding to experimental groups (control group: 0.05% DMSO, experimental group: 50 μM Rubusoside)
as §3

[4] = test system: TAS2R4 in anagen hair follicles; assay: Activation of TAS2R4 with Stevioside in cultured hair follicles; format: cell-based, human
Method: To determine the effect of activating TAS2R4 by the agonist Stevioside, anagen hair follicles were cultured in WEM medium supplemented with 2 mM L-glutamine, 10 ng/mL hydrocortisone, 10 μg/mL insulin and 1% penicillin/streptomycin mix (WCM medium), and treated either with 200 μM Stevioside (Sigma-Aldrich, cat. 50956) diluted in DMSO or vehicle (0.2% DMSO in WCM medium) according to the following procedure: Day 0: Isolation of anagen hair follicles Day 1: Change media, application of the substance corresponding to experimental groups (control group: 0.2% DMSO, experimental group: 200 μM Stevioside) Day 2: Rest Day 3: Change media Day 4: Rest Day 5: Change media Day 6: Rest Day 7: Collection and freezing of hair follicles for analyses

[5] = 200 μM Rebaudioside A vs 0.5% DMSO, collection day 6
[6] = 120 μM BCML vs vehicle (WCM), collection day 7
[7] = 200 μM Stevioside vs 0.2% DMSO, collection day 7

What does the source list for C=C1C[C@@]23CC[C@H]4[C@@](C)(CCC[C@@]4(C)C(=O)O[C@@H]4O[C@H](CO)[C@@H](O)[C@H](O)[C@H]4O)[C@@H]2CC[C@]1(O[C@@H]1O[C@H](CO)[C@@H](O)[C@H](O[C@@H]2O[C@H](CO)[C@@H](O)[C@H](O)[C@H]2O)[C@H]1O[C@@H]1O[C@H](CO)[C@@H](O)[C@H](O)[C@H]1O)C3 [Rebaudioside A]?
proportion of hair follicles in catagen stage ([1]; 200 μM Rebaudioside A vs 0.5% DMSO, 2 donors, collection day 6): increases; apoptosis [1, 5]: increases; hair matrix keratinocyte proliferation [1, 5]: decreases; pigmentation [1, 5]: hypopigmentation; hair growth ([1]; summary statement, Rebaudioside A): hair growth inhibition

What does the source list for NCCCC[C@@H](C(=O)O)N(CC(=O)O)CC(=O)O [BCML, Nα,Nα-bis(carboxymethyl)-l-lysine]?
apoptosis [2, 6]: does not affect; hair matrix keratinocyte proliferation [2, 6]: increases; pigmentation [2, 6]: increases; proportion of hair follicles in anagen stage [2, 6]: increases; hair growth ([2]; summary statement, anagen hair follicles, BCML): hair growth promotion

C=C1C[C@@]23CC[C@H]4[C@@](C)(CCC[C@@]4(C)C(=O)O[C@@H]4O[C@H](CO)[C@@H](O)[C@H](O)[C@H]4O)[C@@H]2CC[C@]1(O[C@@H]1O[C@H](CO)[C@@H](O)[C@H](O)[C@H]1O)C3 [Rubusoside] was tested. Which “proportion of human hair follicles in catagen stage” value ([3]; 50 μM Rubusoside vs 0.05% DMSO, collection day 6) did it give?
The value was “increases”.

And the hair growth ([3]; summary statement, Rubusoside)?
The hair growth was “hair growth inhibition”.

With C=C1C[C@@]23CC[C@H]4[C@@](C)(CCC[C@@]4(C)C(=O)O[C@@H]4O[C@H](CO)[C@@H](O)[C@H](O)[C@H]4O)[C@@H]2CC[C@]1(O[C@@H]1O[C@H](CO)[C@@H](O)[C@H](O)[C@H]1O[C@@H]1O[C@H](CO)[C@@H](O)[C@H](O)[C@H]1O)C3 [Stevioside] as the compound, how does the apoptosis [4, 7] read?
Its apoptosis is “does not affect”.

What about the “hair matrix keratinocyte proliferation” value [4, 7] of the same compound?
The value was “decreases”.

What about the “proportion of hair follicles in catagen stage” value [4, 7] of the same compound?
Its value is “increases”.

What about the hair growth ([4]; summary statement, Stevioside) of the same compound?
The hair growth was “hair growth inhibition”.
